Values belong to the compound of their own block, whether it stands above or below them.
Assays:
pancreatin = test: Enzymatic stability in simulated intestinal fluid (SIF) with pancreatin; format: in vitro ADME, porcine; details: 37 °C, 100 rpm, RIA, mean ± SD, n = 3
Method: (§1) Enzymatic degradation in the presence of proetolytic enzymes pepsin and pancreatin was investigated. Peptide-loaded particles were added to 100 mL of artificial gastric fluid (simulated gastric fluid—SGF) with pepsin, or artificial intestinal fluid (simulated intestinal fluid—SIF) with pancreatin and incubated at 37 °C under moderate stirring at 100 rpm. SGF and SIF were prepared as per European Pharmacopoeia specifications. A total of 1000 µL samples were collected at determined time intervals for 120 min, and an equal volume of ice-cold reagent was added to stop the enzymatic reaction (0.10 M NaOH for SGF and 0.10 M HCl for SIF). Samples were analyzed by radioimmunoassay.

pepsin [1] = biological target: T1, pepsin (Sus scrofa, UniProt P00791); test: Enzymatic stability in simulated gastric fluid (SGF) with pepsin; format: in vitro ADME, porcine; details: SGF with pepsin, 37 °C, 100 rpm, 1 h; RIA; n = 3
T1 construct: purchased Sigma-Aldrich; host or cells: porcine gastric mucosa
Method: as §1

pepsin [2] = tested on: T2, pepsin; test: as above; format: in vitro ADME, porcine; details: pig, simulated gastric fluid (SGF) with pepsin; SGF with pepsin (Ph. Eur.), 37 °C, 100 rpm, 30 min; RIA; mean ± SD, n = 3; read-out: active MCH measured after incubation in SGF
T2 construct: purchased Sigma-Aldrich; host or cells: porcine gastric mucosa
Method: as §1

Caco-2 cells = test: MTT cell viability assay; format: cell-based, human; details: Caco-2, MTT, n = 10
Method: A Caco-2 immortalized human adenocarcinoma cell line was purchased from The European Collection of Cell Cultures (ECACC). Cells were seeded and maintained in plastic cell culture flasks in Dulbecco's Modified […] medium (DMEM Sigma-Aldrich Ltd., Budapest, Hungary). Cell culturing media was supplemented with 2 mM L-glutamine, 100 mg/L gentamycin (Sigma-Aldrich Ltd., Budapest, Hungary) and 10% heat inactivated fetal bovine serum (FBS) (Sigma-Aldrich Ltd., Budapest, Hungary). Cells were stored in incubators at 37 °C in a 5% CO2 atmosphere. The colon epithelial Caco-2 cell line forms a single cell layer with well-defined tight junctions. Caco-2 cell viability was evaluated using the MTT method. Cells were harvested and seeded at a density of 10^4 cells/well on flat-bottom 96-well tissue culture plates. Cells were allowed to grow for 7 days under the abovementioned conditions. For the viability measurements, the DMEM was removed. […] Mitochondrial activity of the cells was determined after 3 h incubation with MTT at the concentration of 0.50 mg/mL. […] The absorbance of dissolved formazan crystals correlates with the ratio of the living cells. Absorbance was measured with a FLUOstar OPTIMA Micro-plate Reader (BMG LABTECH, Offenburg, Germany) at 570 nm against a 690 nm reference.

T1 sequence (P00791 60-385): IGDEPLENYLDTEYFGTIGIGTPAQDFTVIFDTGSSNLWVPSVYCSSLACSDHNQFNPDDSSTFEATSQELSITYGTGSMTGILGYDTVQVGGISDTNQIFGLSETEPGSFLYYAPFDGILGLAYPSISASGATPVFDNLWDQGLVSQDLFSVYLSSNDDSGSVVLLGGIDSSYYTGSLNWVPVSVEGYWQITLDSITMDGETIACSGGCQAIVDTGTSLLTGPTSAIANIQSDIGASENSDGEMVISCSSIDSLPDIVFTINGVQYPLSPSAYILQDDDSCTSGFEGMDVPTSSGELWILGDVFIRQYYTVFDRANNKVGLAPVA

- MCH recovery after incubation with SIF (pancreatin; SIF with pancreatin, 2 h): 1.00 ± 0.50%
- remaining at 0.5 h (pancreatin; pig, simulated intestinal fluid (SIF) with pancreatin, SIF with pancreatin (Ph. Eur.), 30 min, read-out: active MCH measured after incubation in SIF): 8 ± 0.5%
- degradation after incubation in SGF (pepsin [1]): completely degraded
- remaining at 0.5 h (pepsin [2]): 3 ± 0.5%
Compound: CSCC[C@@H]1NC(=O)[C@@H](NC(=O)[C@H](CCCNC(=N)N)NC(=O)[C@H](CC(C)C)NC(=O)[C@H](CCSC)NC(=O)[C@H](CC(=O)O)NC(=O)[C@H](Cc2ccccc2)NC(=O)[C@@H](N)CC(=O)O)CSSC[C@@H](C(=O)N[C@@H](Cc2c[nH]c3ccccc23)C(=O)N[C@@H](CCC(N)=O)C(=O)N[C@H](C(=O)O)C(C)C)NC(=O)[C@@H]2CCCN2C(=O)[C@H](CCCNC(=N)N)NC(=O)[C@H](Cc2ccc(O)cc2)NC(=O)[C@H](C(C)C)NC(=O)[C@H](CCCNC(=N)N)NC(=O)CNC(=O)[C@H](CC(C)C)NC1=O [MCH, Melanin concentrating hormone]

Compound: CCOCCOCCO [Transcutol HP, Diethylene glycol monoethyl ether]
- IC50 (cytotoxicity) (Caco-2 cells; 30 min incubation with sample, 3 h MTT 0.50 mg/mL, absorbance 570 nm): 0.37 v/v%

Compound: O.O.[Ca+2].[Cl-].[Cl-] [calcium-chloride dihydrate, Calcium chloride dihydrate]
- toxicity in MTT assay (in words) (Caco-2 cells; 30 min incubation, also at higher concentrations): did not show relevant toxicity

Source: publication PMC8778866, “Oral Bioavailability Enhancement of Melanin Concentrating Hormone, Development and In Vitro Pharmaceutical Assessment of Novel Delivery Systems” (Pharmaceutics, 2021)
